Here are results for 13 compounds from PubChem BioAssay (NCI).

Assay in all cases: growth of human tumour cells (NCI), 48 h
In test [1] the test system is SK-OV-3 ovarian.
The subject of test [2] is DU-145 prostate.
The test system of test [3] is HCT-116 colon.
Test [4] has as its system HOP-62 NSCLC.
Test [5] concerns NCI-H522 lung.
The test system of test [6] is OVCAR-8 ovarian.
Test [7] relates to KM12 colon.
Test [8] deals with U251 CNS.
Test [9] deals with A498 renal.
Test [10] deals with EKVX NSCLC.

The structures appear in SMILES notation. Values joined by “and” are separate entries in the source; they are usually repeats but may differ in a detail not shown here. Identical values can stand only once.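 48-hour exposure; five concentrations; linearly interpolated endpoints. GI50: concentration for 50% inhibition of growth. The concentration for full growth arrest is given as TGI.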

Consider `N=C(N)C(N=Nc1ccccc1)C(=N)N` (stereo not drawn), for which the TGI in test [1], in test [2], in test [3], in test [4], in test [5] and in [6] was > 100 µM in each case. Further, the TGI in test [7], in test [8], in test [9] and in test [10] was > 100 µM throughout.

Regarding `O=C1c2ccccc2-c2ccc(O)cc21`, the TGI in test [2] is 49.1 µM; in [3], > 100 µM; in test [4], > 100 µM; in [5], 32.9 µM; in [6], 42.2 µM; in test [7], 38.4 µM. Besides, the figures for the TGI in test [8], in test [9] and in [10] were 70.3 µM, 41.8 µM and 37.8 µM, respectively.

As for `COC1(OC)C[C@H](C)[C@@]23O[C@]24c2cc(O)c5c(c2N[C@H]3C#C/C=C\C#C[C@]14O)C(=O)c1ccccc1C5=O`, the TGI is 0.0217 µM in test [1]; 0.00686 µM and 0.048 µM in test [2]; 0.148 µM in test [3]; 0.00216 µM and 0.0173 µM in test [4]; 0.0664 µM and 0.0606 µM in [5]; 0.048 µM and 0.0756 µM in test [6]. The TGI was 0.0847 µM and 0.108 µM in test [7]; 0.0421 µM and 0.0705 µM in test [8]; 0.00964 µM and 0.0459 µM in test [9]; 0.213 µM and 0.202 µM in [10]. The GI50 in test [2] was 0.00164 µM; in test [4], < 0.001 µM; in [5], 0.0088 µM; in [6], 0.0043 µM; in test [7] it was 0.0138 µM and 0.0249 µM; in test [8], 0.00251 µM. In addition, the GI50 in test [9] is 0.005 µM; in test [10], 0.0527 µM.

Take `CCC(C)C(NC(=O)C(CCCCN)NC(=O)C(NC(=O)C(CCC(N)=O)NC(=O)C(CCCNC(=N)N)NC(C)=O)C(C)CC)C(=O)NC(Cc1c[nH]c2ccccc12)C(=O)NC(Cc1ccccc1)C(=O)NC(CCC(N)=O)C(=O)NC(CC(N)=O)C(=O)NC(CCCNC(=N)N)C(=O)NC(CCCNC(=N)N)C(=O)NC(CCSC)C(=O)NC(CCCCN)C(=O)NC(Cc1c[nH]c2ccccc12)C(=O)NC(CCCCN)C(=O)NC(CCCCN)C(N)=O` (stereo not drawn): the TGI in [1], in [2], in [3], in test [4], in [5] and in [6] was > 50 µM throughout. In addition, the TGI in test [7], in test [8], in test [9] and in test [10] was > 50 µM throughout.

In the case of `O=C1OC(c2ccccc2)=N/C1=C/c1cccs1`, the TGI in [1], in [4], in test [6], in test [7], in test [8] and in [10] was > 100 µM throughout.

As for `CC(=O)C1=C(O)C2(O)C(=O)c3c(c(C)c4ccc(C)c(O)c4c3O)CC2C(N)C1=O` (stereo not drawn), the TGI was 12.6 µM in test [1]; 14.7 µM in test [2]; 14 µM in test [3]; 10.7 µM in test [4]; > 29.5 µM in test [5]; 10.7 µM in test [6]. Further, the TGI in [7] turned out to be 8.29 µM; in test [8], 7.82 µM; in test [9], 8.45 µM; in test [10] it was 12.2 µM. Besides, in test [2], the GI50 was 2.41 µM.

On to `Cc1nc(Cl)c(C)c(Cl)n1`, for which the TGI in test [1], in test [2], in test [3], in [4], in [6] and in test [7] was > 100 µM throughout. Further, the TGI was > 100 µM in [8], > 100 µM in [9] and > 50.9 µM in [10].

Turning to `S=C(NCCCCCCNC(=S)Nc1c2ccccc2nc2ccccc12)Nc1c2ccccc2nc2ccccc12`, the TGI in test [1] is > 100 µM; in [3] it was > 100 µM; in [4], > 100 µM; in test [5], > 100 µM; in test [6] it was > 100 µM; in test [7], > 34.7 µM. Further, the TGI in test [8], in [9] and in [10] was > 100 µM each time.

For the compound `O=C1c2scnc2-c2nccc3c2c1nc1ccccc13`, the TGI was 23.4 µM in [1]; 3.14 µM in test [2]; 8.18 µM in test [4]; > 100 µM in test [5]; 1.21 µM in test [6]; 2.52 µM in [9]. In addition, the TGI in test [10] was > 20.2 µM.

Take `N#CCc1[nH]nc2nc(SCc3ccccc3)nc(N3CCCCC3)c12`: the TGI was 45.7 µM in [1]; 33.6 µM in [2]; 32.4 µM in [3]; 35.5 µM in [4]; 37.9 µM in test [5]; > 100 µM in [6]. The TGI was 33 µM in test [7], 35.2 µM in test [8], 73.4 µM in test [9] and 39.5 µM in [10].

`C[N+]1(C)C2CCC1CC(OC(=O)C(CO)c1ccccc1)C2` (stereo not drawn): the TGI in test [1], in [2], in test [3], in test [4], in test [5] and in test [6] was > 100 µM each time. For the same compound, the TGI in test [7], in test [8], in [9] and in test [10] was > 100 µM throughout.

As to `OC1C=C2C3CN(Cc4cc5c(cc43)OCO5)[C@H]2C[C@@H]1O` (stereo partly drawn), the TGI is > 100 µM in [1]; 71.2 µM in [2]; 25.1 µM in test [3]; > 100 µM in test [4]; > 100 µM in test [5]; 91.2 µM in [6]. The TGI in test [7] amounted to 43.9 µM; in [8] it was 50.4 µM; in [9], 39.9 µM; in [10], 28.6 µM.

As for `Cc1c2c(cc3c1[nH]c1ccccc13)C(c1ccc(F)cc1)=NCC2`, the TGI in test [1] came to 4.45 µM; in test [3], 5.41 µM; in test [4], 6.54 µM; in [5], 3.85 µM; in test [6], 6.68 µM; in test [7], 7.37 µM. For the same compound, the figures for the TGI in test [8], in test [9] and in [10] were 5.11 µM, 4.73 µM and 9.02 µM, respectively.
